Laboratory results from patent US5591758A, “Organic nitrates, processes for their preparation and their use in the treatment of cardiovascular diseases” (Laboratoires Hoechst, SA, priority 1991, dated 1997).
Counter-ions that a name gives are not always drawn.

What was measured:
thoracic aorta = test: Vasorelaxant effect on isolated vessels (rat thoracic aorta rings without endothelium, precontracted with noradrenalin); parameters: species or system Wistar rats; settings: for Emax: Rattus norvegicus, maximum inhibition of noradrenalin effect, 10^-8 to 10^-4 M substance, read-out: Maximum Relaxation; for IC50: rat aorta, 10^-7 M noradrenalin contraction
Method: Vasorelaxant effect of the compounds according to the invention on isolated vessels.
Adult Wistar rats weighing between 250 and 350 g are anaesthetised by intraperitoneal injection of sodium pentobarbital (30 mg/kg). The thoracic aorta is rapidly removed and placed in a refrigerated and oxygenated solution of bicarbonate buffer of the Krebs-Ringer type (composition [mM]: NaCl, 118; KCl, 4.7; CaCl2, 2.5; MgSO4, 1.2; KH2 PO4, 1.2; NaHCO3, 25.0; disodium calcium salt of EDTA, 0.026; glucose 11.1). The aorta is dissected with the aim of removing the connective tissue and then cut into 6 rings (length 5-10 mm). The endothelium is removed by moderate abrasion of the intimal surface of the aortic segments with the aid of a pair of tweezers. These segments are then placed between two hooks in an isolated organ cell filled with 25 ml of bicarbonate buffer (pH 7.4), thermostat-controlled at 37° C. and oxygenated with the aid of a 95% O2 /5% CO2 mixture (pH 7.4). One of the hooks is fixed to a fixed point, while the second is connected to a transducer with the aim of measuring the variations in isometric voltage (expressed in grams). After an equilibration period of 30 min., the segments are progressively withdrawn so as to attain the level of base voltage for which the contractor response to noradrenalin (10^-7 M) is maximum (optimum voltage; average 2 g). The absence of endothelium is verified by addition of a single concentration of acetylcholine (10^-6 M), after precontraction of the vessels by noradrenalin (10^-7 M). The integrity of the vascular smooth muscle is also verified by adding a single concentration of a vasodilator whose response is independent of the presence of the endothelium, SIN-1 (10^-5 M). After this initial procedure, the aortas are washed, equilibrated for a period of 30 min and then recontracted (10^-7 M noradrenalin). The relaxant effect of the substance to be tested is then evaluated by adding increasing concentrations of this substance (from 10^-8 to 10^-4 M). The maximum inhibition of the concentration caused by noradrenalin (expressed as a percentage) is then calculated ("maximum relaxation"). When this maximum relaxation is greater than 50%, the concentration of substance tested producing a 50% inhibition of the maximum contraction (IC50) is calculated. Table V below collates the IC50 and the maximum relaxation percentages for the various compounds tested.

anesthetised dogs = test: Haemodynamic effects on anesthetised dogs; assay type: in vivo, dogs (labrador/harrier cross); settings: dogs
Method: Haemodynamic effects of the compounds according to the invention on anesthetised pigs or dogs
The dogs, weighing between 16 and 26 kg, are the progeny of a labrador/harrier cross.
In the case of dogs the anesthesia is induced by sodium pentobarbitol (45 mg/jg i.v.) and maintained with an i.v. perfusion (flow rate of 8 mg/kg/h).
The pigs or dogs are placed under artificial respiration in ambient air. Analysis of the blood gases (pO2, pCO2) is carried out at regular intervals and oxygen can be supplied via the respirator, if necessary.
The haemodynamic parameters recorded include the left ventricular pressure (LVP; Millar PC350 Tip catheter inserted via the carotid artery), systemic blood pressure (BPs, BPd; full catheter in a femoral artery), the end pressure of the left ventricular diastole (LVEDP), the ventricular contractility (LVPdp/dtmax) and the heart rate (HR).
Following an equilibration period of the order of 45 minutes, the compounds studied are administered intraduodenally (i.d.) or intraveinously (i.v.) to several animals (1 to 4). The haemodynamic variables are recorded continuously for 1 to 3 hours, as a function of the period of action of the compound.
The effects of the compounds studied are shown as the absolute difference with respect to the base value (bv) measured before administration of the compounds and are shown in Table VII (a,b,c).
An antianginal activity is estimated by a fall in the BPs and the LVEDP (fall in venous return).

| IC50 (thoracic aorta) | SMILES | Emax (thoracic aorta) | BPs (min), period of action (anesthetised dogs; 3 mg/kg i.d.) | BPs, difference to base value (anesthetised dogs; 3 mg/kg i.d.) | LVEDP (min), period of action (anesthetised dogs; 3 mg/kg i.d.) | LVEDP, difference to base value (anesthetised dogs; 3 mg/kg i.d.) | BPs (min), period of action (anesthetised dogs; 1 mg/kg i.d.) | BPs, difference to base value (anesthetised dogs; 1 mg/kg i.d.) | LVEDP (min), period of action (anesthetised dogs; 1 mg/kg i.d.) | LVEDP, difference to base value (anesthetised dogs; 1 mg/kg i.d.) |
| --- | --- | --- | --- | --- | --- | --- | --- | --- | --- | --- |
| 51 µM | CC(C)[C@H](NC(=O)[C@@H]1CSCN1)C(=O)N[C@H]1CO[C@H]2[C@@H]1OC[C@@H]2O[N+](=O)[O-] [Compound 64, 5-[[2-[[(4-L-thiazolidinyl)carbonyl]amino]-1-((2S)-2-isopropyl)-oxoethyl]amino]-5-deoxy-2-O-nitro-1,4:3,6-dianhydro-L-iditol monohydrochloride] | 84% | > 180 min | -25 mmHg | 150 min | -2,0 mmHg |  |  |  |  |
| 29 µM | CSCC[C@H](NC(=O)[C@@H]1CSCN1)C(=O)N[C@H]1CO[C@H]2[C@@H]1OC[C@@H]2O[N+](=O)[O-] [Compound 68, 5-[[2-[[(4-n-thiazolidinyl)carbonyl]amino]-1-((2S)-2-(2'-thiomethyl)-ethyl)-oxoethyl]amino]-5-deoxy-2-O-nitro-1,4:3,6-dianhydro-L-iditol monohydrochloride] | 90% |  |  |  |  | > 180 min | -30 mmHg | > 180 min | -3,0 mmHg |
| 35 µM | O=C(N[C@H]1CO[C@H]2[C@@H]1OC[C@@H]2O[N+](=O)[O-])[C@@H]1CCCN1C(=O)[C@@H]1CSCN1 [Compound 70, 5-[[[(2S)-N-[(4-L-thiazolidinyl)carbonyl]-2-pyrrolidinyl]carbonyl]amino]-5-deoxy-2-O-nitro-1,4:3,6-dianhydro-L-iditol monohydrochloride] | 83% | > 90 min | -30 mmHg | 0 min | 0,0 mmHg |  |  |  |  |
| 70 µM | O=C(CNC(=O)[C@@H]1CSCN1)N[C@H]1CO[C@H]2[C@@H]1OC[C@H]2O[N+](=O)[O-] [Compound 71, 2-[[2-[[(4-L-thiazolidinyl)carbonyl]]amino]-1-oxoethyl]amino]-2-deoxy-5-O-nitro-1,4:3,6-dianhydro-D-glucitol monohydrochloride] | 66% | 0 min | 0 mmHg | > 60 min | -5,5 mmHg |  |  |  |  |

| SMILES | IC50 (thoracic aorta) | Emax (thoracic aorta) | BPs (min), period of action (anesthetised dogs; 3 mg/kg i.d.) | BPs, difference to base value (anesthetised dogs; 3 mg/kg i.d.) | LVEDP (min), period of action (anesthetised dogs; 3 mg/kg i.d.) | LVEDP, difference to base value (anesthetised dogs; 3 mg/kg i.d.) | BPs (min), period of action (anesthetised dogs; 1 mg/kg i.d.) | BPs, difference to base value (anesthetised dogs; 1 mg/kg i.d.) | LVEDP (min), period of action (anesthetised dogs; 1 mg/kg i.d.) | LVEDP, difference to base value (anesthetised dogs; 1 mg/kg i.d.) |
| --- | --- | --- | --- | --- | --- | --- | --- | --- | --- | --- |
| CC(C)(C)OC(=O)N1CSC[C@H]1C(=O)N[C@@H](Cc1ccccc1)C(=O)N[C@H]1CO[C@H]2[C@@H]1OC[C@@H]2O[N+](=O)[O-] [Compound 65, 5-[[2-[[(3-t-butoxycarbonyl-4-L-thiazolidinyl)carbonyl]amino]-1-((2S)-2-benzyl)-oxoethyl]amino]-5-deoxy-2-O-nitro-1,4:3,6-dianhydro-L-iditol] | 20 µM | 100% | 0 min | 0 mmHg | 30 min | 1,0 mmHg |  |  |  |  |
| CSCC[C@H](NC(=O)[C@@H]1CSCN1C(=O)OC(C)(C)C)C(=O)N[C@H]1CO[C@H]2[C@@H]1OC[C@@H]2O[N+](=O)[O-] [Compound 67, 5-[[2-[[(3-t-butoxycarbonyl-4-L-thiazolidinyl)carbonyl]amino]-1-((2S)-2-(2'-thiomethyl)-ethyl)-oxoethyl]amino]-5-deoxy-2-O-nitro-1,4:3,6-dianhydro-L-iditol] | 9 µM | 100% | > 90 min | -15 mmHg | > 90 min | -1,5 mmHg |  |  |  |  |
| CC(C)(C)OC(=O)N1CSC[C@H]1C(=O)N1CCC[C@H]1C(=O)N[C@H]1CO[C@H]2[C@@H]1OC[C@@H]2O[N+](=O)[O-] [Compound 69, 5-[[[(2S)-N-[(3-t-butoxycarbonyl-4-L-thiazolidinyl)carbonyl]-2-pyrrolidinyl]carbonyl]amino]-5-deoxy-2-O-nitro-1,4:3,6-dianhydro-L-iditol] | 42 µM | 87% | > 150 min | -40 mmHg | > 150 min | -2,5 mmHg |  |  |  |  |
